Assays:
[1] = Inhibition of Human influenza virus A/Aichi/2/68 (H3N2) hemagglutininin activity in chicken erythrocytes after 1 hr
[2] = Inhibition of Human influenza virus A/PR/8/34 (H1N1) hemagglutininin activity in chicken erythrocytes after 1 hr

| Structure (SMILES) | IC50 [1] | IC50 [2] |
| --- | --- | --- |
| C=CC(=O)NCCCCCC(=O)N[C@H]1[C@H]([C@H](O)[C@H](O)CO)O[C@@](SCCCCCCCCCCCC)(C(=O)O)C[C@@H]1O | 7.81 µM | 7.81 µM |
| C=CC(=O)N[C@H]1[C@H]([C@H](O)[C@H](O)CO)OC(O)(C(=O)O)C[C@@H]1O (stereo partly specified) | > 250 µM | > 250 µM |
| C=CC(=O)N[C@H]1[C@H]([C@H](O)[C@H](O)CO)O[C@@](SCCCCCCCCCCCC)(C(=O)O)C[C@@H]1O | 3.9 µM | 7.81 µM |
